Experiments:
[1] = refractive index (Na D-line) (dimensionless); settings: 101.33 kPa, Liquid, Standard Abbe refractometry
[2] = for mass density / viscosity: 101.33 kPa, Liquid; for mass density: Vibrating tube method; for viscosity: Falling or rolling sphere viscometry

CCCCCCCC/C=C\CCCCCCCCn1cc[n+](C)c1.O=S(=O)([N-]S(=O)(=O)C(F)(F)F)C(F)(F)F
Settings	mass density [kg/m3]	refractive index	viscosity [mPa·s]
[1], 283.2 K	–	1.4576	–
[1], 293.2 K	–	1.4545	–
[1], 298.2 K	–	1.4528	–
[1], 303.2 K	–	1.4511	–
[1], 313.2 K	–	1.4479	–
[1], 323.2 K	–	1.4446	–
[1], 333.2 K	–	1.441	–
[1], 343.2 K	–	1.4379	–
[2], 273.15 K	1210.9	–	–
[2], 278.15 K	–	–	1005.3
[2], 283.15 K	1202.62	–	698.6
[2], 288.15 K	–	–	492.9
[2], 293.15 K	1194.49	–	355.7
[2], 298.15 K	–	–	263.5
[2], 303.15 K	1186.39	–	222.85
[2], 313.15 K	1178.38	–	133.94
[2], 323.15 K	1170.38	–	85.97
[2], 333.15 K	1162.47	–	58.09
[2], 343.15 K	1154.57	–	41.09

Settings	Normal melting temperature [°C]
[2], Crystal, DTA	-20.8

Source: the NIST ThermoML archive (doi:10.1021/je301004f)
